Like-named read-outs stand apart in the source and are kept apart here.
Experiments:
[1] = Deactivation and decolorization of anticancer drugs by hypochlorite; details: calcium or sodium hypochlorite
Text: In accordance with the invention, HIV infected blood, or any of a number of active anticancer drugs, can be inactivated by applying thereto an aqueous solution containing 4-40% by weight of calcium or sodium hypochlorite. HIV infected blood, as well as any anticancer agent which can undergo oxidative or alkaline degradation can be deactivated in accordance with the method of the invention. Among the anticancer agents which can be effectively deactivated are the following:
In addition to chemically deactivating the anti-cancer drugs, the method of the invention is also effective to decolorize those, e.g., the anthracyclines, doxorubicin and daunorubicin, which are naturally red in color, and the alkylating agent mitomycin C, which is naturally purple in color, which stain fabrics which they contact. The method of the invention renders the naturally colored anticancer drugs colorless, thus preventing permanent damage to clothes or other materials which come in contact with the drugs.
It has also been determined that HIV infected blood and most anticancer drugs can be deactivated by application of a solution of calcium or sodium hypochlorite in water at a concentration of 4% by weight.

[2] = system: Salmonella Typhimurium TA 98 strain; experiment: Mutagenic activity (revertant colonies) of DNA intercalators treated with calcium hypochlorite; assay type: cell-based; details: for No. colonies of revertant organisms: drug 10 ng/ml
Description: Solutions of DNA intercalators (doxorubicin, daunorubicin and mitoxantrone)in concentrations of 10 ng/ml D5W were applied in 5 ml quantities to separate petri dishes. Two different concentrations of calcium hypochlorite, 40 g/l and 423 g/l, were applied in 1 ml. volumes separately to the anticancer drug solutions in each petri dish for a period of one minute. After thorough mixing and neutralization of the pH to 7.4 using HCl, 1 ml of each petri dish solution was applied to 35 mm petri dishes containing cultures of Salmonella Typhimurium TA 98 strain. The petri dishes containing bacteria plus overlaid mixtures of calcium hypochlorite/anticancer drug and control plates with bacteria alone were then incubated at 37° C. for 24 hours.

[3] = assay type: physicochemical; details: for Concentration by fluorescence (chromophore recovery): 10 ng on column
Description: Treatment of the drugs with calcium hypochlorite was carried out as described in Example 1. One ml aliquots of doxorubicin, daunorubicin and mitoxantrone, separately, were taken from the petri dishes after calcium hypochlorite exposure at two different concentrations for a period of one minute. Ten (10) ng of each of the anticancer drug (based on the final concentration resulting from the addition of calcium hypochlorite to the separate petri dishes containing each anticancer agent) was added to a high performance liquid chromatography column and standard HPLC assays were carried out. A reverse phase C-18 bonded phase HPLC procedure was used. The mobile phase consisted of 30:70 CH3 CN:ammonium acetate at a flow rate of 2 ml/min., using a Varian model 5020 HPLC unit. The anticancer drugs were detected using excitation at 480 nm and emission at 550 nm with a Schoeffel model FS 970 fluoroescence detector.

[4] = system: HIV-infected CD4+ human cell line (H9/IIIB); experiment: HIV inactivation by dilute calcium hypochlorite; assay type: cell-based, HIV; human cells
Description: The ability of dilute calcium hypochlorite to inactivate HIV was tested against an HIV-infected CD4+ human cell line (H9/IIIB).
H9/IIIB cells (10^6 cells/ml of complete culture medium, RPMI in 10% fetal calf serum [FCS]) were exposed to an aqueous solution containing 4% by weight of calcium hypochlorite for 15 minutes; the volumetric ratio of culture medium to calcium hypochlorite solution was 1:1, or a 50% dilution of a 4% dilute calcium hypochlorite solution in culture medium containing 10% serum. The cells were subsequently washed three times with 10% FCS RPMI and plated in fresh medium and allowed to incubate at 37° C. for three days, to allow any residual live virus and/or virus-infected cells to develop after the brief exposure to the dilute calcium hypochlorite solution. The cells were again pelleted and exposed to lytic CD4+ human cell line (MOT) as a target for any viable virus. The target MOT cells will lyse when infected with HIV. These cells were then allowed to incubate an additional four days. Next, the cells were incubated with human anti-HIV antibody (prepared in accordance the procedures described in Lake DA, Sugano T, Matsumoto Y, et al: "A Hybridoma Producing Monoclonal Antibody Specific for Glycoprotein 120 kDa of Human Immunodeficiency Virus (HIV-1), Life Sciences 45:iii-x, 1989.) for one hour, and then washed and incubated with fluorescent labeled goat anti-human IgG for one hour. The method for HIV detection by formaldehyde fixation and flow cytometry was in accordance with the method described in Lifson JD, Sasaki DT, Engleman EG: "Utility of Formaldehyde Fixation for Flow Cytometry and Inactivation of the AIDS Associated Retrovirus", J Immunological Methods 86:143-149, 1986.
As a positive control, the above procedure was followed with HIV-infected H9/IIIB cells exposed only to culture medium rather than to culture medium and calcium hypochlorite. As a negative control, the above procedure was followed with uninfected H9 cells exposed to an aqueous solution containing 4% by weight of calcium hypochlorite.

[5] = system: HIV infected cells (H9/IIIB); experiment: Towlette swabs for work surfaces contaminated by HIV infected cells; parameters: species or system HIV; human cells; details: 5% impregnated towlette; stainless steel surface
Text: Test Swabs: 17×23 cm nylon-reinforced 4 ply, #34770, each weighing approximately 2.6 gram Terri® Wipers, manufactured by Kimberly Clark, Neenah, Wis.
Bleach: 4% by weight aqueous solution of calcium hypochlorite.
Sodium thiosulfate: 5% by weight aqueous solution, supplied by Tarijian Labs, Inc., Queens Village, N.Y.
HIV infected Cells: H9/IIIB cells (10^6 cells/ml of complete culture medium, RPI in 10% fetal calf serum [FCS]), as described above in Example 6.
A first fresh, dry test swab or towlette is impregnated with a 4.0% by weight aqueous solution of calcium hypochlorite by applying 5 (five) ml. of the calcium hypochlorite solution to the test swab. A second fresh, dry test swab or towlette is impregnated with a 5% by weight aqueous solution of sodium thiosulfate by applying 5 (five) ml. of the sodium thiosulfate solution to the test swab.
A small amount of the HIV infected cells are placed on a stainless steel work surface.
The sodium thiosulfate impregnated towlette is then wiped, or swabbed, over the work surface containing the inactivated virus.

[6] = Towlette swabs for work surfaces contaminated by doxorubicin; details: 5% impregnated towlette; stainless steel surface
Text: The Experimental Materials used are as described above in Example 8. A first fresh, dry test swab or towlette is impregnated with a 5.25% by weight aqueous solution of sodium hypochlorite by applying 5 (five) ml. of the sodium hypochlorite solution to the test swab. A second fresh, dry test swab or towlette is impregnated with a 5% by weight aqueous solution of sodium thiosulfate by applying 5 (five) ml. of the sodium thiosulfate solution to the test swab.
Doxorubicin is placed on a stainless steel work surface, which should cause a red stain to appear.
The sodium thiosulfate impregnated towlette is then wiped, or swabbed, over the work surface containing the chemically inactivated doxorubicin spill.

[7] = calcium hypochlorite 40 g/l, one minute
[8] = calcium hypochlorite 423 g/l, one minute
[9] = no calcium hypochlorite, 37° C., 24 hours
[10] = calcium hypochlorite 0 (control)
[11] = lower concentration of calcium hypochlorite (40 g/l), one minute

SMILES	No. colonies of revertant organisms [2, 7]	No. colonies of revertant organisms [2, 8]	No. colonies of revertant organisms [2, 9]	Concentration by fluorescence (chromophore recovery) [3, 10]	Concentration by fluorescence (chromophore recovery) ([3]; calcium hypochlorite 40 g/l)	Concentration by fluorescence (chromophore recovery) ([3]; calcium hypochlorite 423 g/l)	chemical evidence of drug [3, 11]	also measured
O=C1c2c(O)ccc(O)c2C(=O)c2c(NCCNCCO)ccc(NCCNCCO)c21 [Mitoxantrone]	44 colonies	0 colonies	164 colonies	10.1 ng	3.8 ng	0 ng		hypochlorite concentration that may be required for substantially complete deactivation [1]: up to 40 % by weight; bacterial revertant growth ([2]; lower concentration of calcium hypochlorite (40 g/l)): associated with bacterial revertant growth; degradation ([3]; lower concentration of calcium hypochlorite (40 g/l), one minute, 1 min): approximately 60%
[Ca+2].[O-]Cl.[O-]Cl [calcium hypochlorite]								HIV / infected cell inactivation ([4]; 4% by weight, 1:1 volumetric ratio, 15 minutes): completely inactivates; viable HIV present ([4]; after four day incubation): no viable HIV varions present; HIV antibody binding ([4]; antibody specific to the 120 kDa viral glycoprotein): no HIV antibody binding is detectable; signs of HIV infection under fluorescent microscope ([4]; fluorescent anti-HIV antibody): no signs of HIV infection; lysis of cells ([4]; non-infected and HIV infected cells, n=4 each): completely lysed; No. colonies of revertant organisms, control without drug ([2]; calcium hypochlorite 40 g/l): 0 colonies; No. colonies of revertant organisms, control without drug ([2]; calcium hypochlorite 423 g/l): 0 colonies
COc1cccc2c1C(=O)c1c(O)c3c(c(O)c1C2=O)C[C@@](O)(C(C)=O)C[C@@H]3O[C@H]1C[C@H](N)[C@H](O)[C@H](C)O1 [Daunorubicin]	0 colonies	0 colonies	365 colonies	9.8 ng	0 ng	0 ng	no chemical evidence	
COc1cccc2c1C(=O)c1c(O)c3c(c(O)c1C2=O)C[C@@](O)(C(=O)CO)C[C@@H]3O[C@H]1C[C@H](N)[C@H](O)[C@H](C)O1 [Doxorubicin]	0 colonies	0 colonies	257 colonies	9.7 ng	0 ng	0 ng	no chemical evidence	
O=S([O-])([O-])=S.[Na+].[Na+] [sodium thiosulfate]								neutralization of residual calcium hypochlorite [5]: should neutralize any residual calcium hypochlorite; neutralization of residual sodium hypochlorite [6]: should neutralize any residual sodium hypochlorite
